According to the supplement of paper PMC8671470:

These compounds were tested on myeloid leukemia patient primary cells Pat.1 (assay: cell viability (% survival relative to DMSO control); higher = less cytotoxic). Settings: 1000 nM; 72 h.
Outline: (§1)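 Thawed mononuclear cells from AML or CML patients were purified on Ficoll and cultured for 72 h in RPMI 1640 with 10% FBS, at 10,000 cells/well, on 384-well plates carrying 70 pre-printed compounds at 1–10,000 nM in five tenfold steps, in duplicate. Viability came from CellTiter-Glo, normalised against DMSO and against 10 μM proteasome inhibitor. Any area under the curve given was derived from log-logistic curve fits in the drc and PharmacoGx R packages, and these fits had four parameters.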
`Nc1nc(O)c2c(CCc3ccc(C(=O)N[C@@H](CCC(=O)O)C(=O)O)cc3)c[nH]c2n1` [Pemetrexed] showed a cell viability of 96.8%. Compound `C=C1NC(=O)c2cc(CN(C)c3ccc(C(=O)N[C@@H](CCC(=O)O)C(=O)O)s3)ccc2N1` [Raltitrexed] has a cell viability of 93.7%.

Same assay, conditions: 10000 nM; 72 h
Work on `NS(=O)(=O)c1ccc(S(=O)(=O)Nc2cccc3c(Cl)c[nH]c23)cc1` [Indisulam] yielded a cell viability of 48.8%. In the case of `Cc1nnc(-c2ccc(N3CCC(Oc4ccccc4C(F)(F)F)CC3)nn2)s1` [MF-438], the cell viability is reported as 82.8%. Compound `CCCCCCCCCCCCC/C=C/[C@@H](O)[C@H](CO)N(C)C` [N,N-Dimethylsphingosine] has a cell viability of 56.2%. `Nc1nc(O)c2c(CCc3ccc(C(=O)N[C@@H](CCC(=O)O)C(=O)O)cc3)c[nH]c2n1` [Pemetrexed] gave a cell viability of 84.1%. `C=C1NC(=O)c2cc(CN(C)c3ccc(C(=O)N[C@@H](CCC(=O)O)C(=O)O)s3)ccc2N1` [Raltitrexed] gave a cell viability greater than 100%.

Each compound was assayed on myeloid leukemia patient primary cells Pat.3 in the same assay as above. Settings: 1 nM; 72 h.
Outline: as §1
`NS(=O)(=O)c1ccc(S(=O)(=O)Nc2cccc3c(Cl)c[nH]c23)cc1` [Indisulam] showed a cell viability of 84.5%. `Cc1nnc(-c2ccc(N3CCC(Oc4ccccc4C(F)(F)F)CC3)nn2)s1` [MF-438] was tested, and the cell viability was 76.3%. Compound `CCCCCCCCCCCCC/C=C/[C@@H](O)[C@H](CO)N(C)C` [N,N-Dimethylsphingosine] has a cell viability of 57.4%. `Nc1nc(O)c2c(CCc3ccc(C(=O)N[C@@H](CCC(=O)O)C(=O)O)cc3)c[nH]c2n1` [Pemetrexed] gave a cell viability greater than 100%. In the case of `C=C1NC(=O)c2cc(CN(C)c3ccc(C(=O)N[C@@H](CCC(=O)O)C(=O)O)s3)ccc2N1` [Raltitrexed], the cell viability is reported as 81.1%.

Same assay, conditions: 10 nM; 72 h
`NS(=O)(=O)c1ccc(S(=O)(=O)Nc2cccc3c(Cl)c[nH]c23)cc1` [Indisulam] was tested, and the cell viability was greater than 100%. In the case of `Cc1nnc(-c2ccc(N3CCC(Oc4ccccc4C(F)(F)F)CC3)nn2)s1` [MF-438], the cell viability is reported as 77.5%. `CCCCCCCCCCCCC/C=C/[C@@H](O)[C@H](CO)N(C)C` [N,N-Dimethylsphingosine] gave a cell viability of 87.2%. With `Nc1nc(O)c2c(CCc3ccc(C(=O)N[C@@H](CCC(=O)O)C(=O)O)cc3)c[nH]c2n1` [Pemetrexed] the cell viability was 79.5%. Compound `C=C1NC(=O)c2cc(CN(C)c3ccc(C(=O)N[C@@H](CCC(=O)O)C(=O)O)s3)ccc2N1` [Raltitrexed] has a cell viability greater than 100%.

Same assay, conditions: 100 nM; 72 h
With `NS(=O)(=O)c1ccc(S(=O)(=O)Nc2cccc3c(Cl)c[nH]c23)cc1` [Indisulam] the cell viability was greater than 100%. With `Cc1nnc(-c2ccc(N3CCC(Oc4ccccc4C(F)(F)F)CC3)nn2)s1` [MF-438] the cell viability was 72.9%. `CCCCCCCCCCCCC/C=C/[C@@H](O)[C@H](CO)N(C)C` [N,N-Dimethylsphingosine] was tested, and the cell viability was 60%. `Nc1nc(O)c2c(CCc3ccc(C(=O)N[C@@H](CCC(=O)O)C(=O)O)cc3)c[nH]c2n1` [Pemetrexed] was tested, and the cell viability was 76.8%. Compound `C=C1NC(=O)c2cc(CN(C)c3ccc(C(=O)N[C@@H](CCC(=O)O)C(=O)O)s3)ccc2N1` [Raltitrexed] has a cell viability of 58.5%.

Same assay, conditions: 1000 nM; 72 h
Work on `NS(=O)(=O)c1ccc(S(=O)(=O)Nc2cccc3c(Cl)c[nH]c23)cc1` [Indisulam] yielded a cell viability of 72.9%. `Cc1nnc(-c2ccc(N3CCC(Oc4ccccc4C(F)(F)F)CC3)nn2)s1` [MF-438] was tested, and the cell viability was 61.3%. Compound `CCCCCCCCCCCCC/C=C/[C@@H](O)[C@H](CO)N(C)C` [N,N-Dimethylsphingosine] has a cell viability of 17.4%. For `Nc1nc(O)c2c(CCc3ccc(C(=O)N[C@@H](CCC(=O)O)C(=O)O)cc3)c[nH]c2n1` [Pemetrexed], the cell viability was 50.9%. For `C=C1NC(=O)c2cc(CN(C)c3ccc(C(=O)N[C@@H](CCC(=O)O)C(=O)O)s3)ccc2N1` [Raltitrexed], the cell viability was 38.7%.

Same assay, conditions: 10000 nM; 72 h
With `NS(=O)(=O)c1ccc(S(=O)(=O)Nc2cccc3c(Cl)c[nH]c23)cc1` [Indisulam] the cell viability was 34.2%. `Cc1nnc(-c2ccc(N3CCC(Oc4ccccc4C(F)(F)F)CC3)nn2)s1` [MF-438] showed a cell viability of 74.1%. For `CCCCCCCCCCCCC/C=C/[C@@H](O)[C@H](CO)N(C)C` [N,N-Dimethylsphingosine], the cell viability was 0.177%. Compound `Nc1nc(O)c2c(CCc3ccc(C(=O)N[C@@H](CCC(=O)O)C(=O)O)cc3)c[nH]c2n1` [Pemetrexed] has a cell viability of 45.7%. In the case of `C=C1NC(=O)c2cc(CN(C)c3ccc(C(=O)N[C@@H](CCC(=O)O)C(=O)O)s3)ccc2N1` [Raltitrexed], the cell viability is reported as 58.7%.

These compounds were tested on myeloid leukemia patient primary cells Pat.7 in the same assay as above. Settings: 1 nM; 72 h.
Outline: as §1
In the case of `NS(=O)(=O)c1ccc(S(=O)(=O)Nc2cccc3c(Cl)c[nH]c23)cc1` [Indisulam], the cell viability is reported as 93.3%. In the case of `Cc1nnc(-c2ccc(N3CCC(Oc4ccccc4C(F)(F)F)CC3)nn2)s1` [MF-438], the cell viability is reported as greater than 100%. `CCCCCCCCCCCCC/C=C/[C@@H](O)[C@H](CO)N(C)C` [N,N-Dimethylsphingosine] gave a cell viability of 90.6%. With `Nc1nc(O)c2c(CCc3ccc(C(=O)N[C@@H](CCC(=O)O)C(=O)O)cc3)c[nH]c2n1` [Pemetrexed] the cell viability was 98.8%. For `C=C1NC(=O)c2cc(CN(C)c3ccc(C(=O)N[C@@H](CCC(=O)O)C(=O)O)s3)ccc2N1` [Raltitrexed], the cell viability was 64.8%.

Same assay, conditions: 10 nM; 72 h
With `NS(=O)(=O)c1ccc(S(=O)(=O)Nc2cccc3c(Cl)c[nH]c23)cc1` [Indisulam] the cell viability was 77.1%. In the case of `Cc1nnc(-c2ccc(N3CCC(Oc4ccccc4C(F)(F)F)CC3)nn2)s1` [MF-438], the cell viability is reported as 93.3%. `CCCCCCCCCCCCC/C=C/[C@@H](O)[C@H](CO)N(C)C` [N,N-Dimethylsphingosine] was tested, and the cell viability was 65.6%. Work on `Nc1nc(O)c2c(CCc3ccc(C(=O)N[C@@H](CCC(=O)O)C(=O)O)cc3)c[nH]c2n1` [Pemetrexed] yielded a cell viability of 68.1%. For `C=C1NC(=O)c2cc(CN(C)c3ccc(C(=O)N[C@@H](CCC(=O)O)C(=O)O)s3)ccc2N1` [Raltitrexed], the cell viability was greater than 100%.

Same assay, conditions: 100 nM; 72 h
`NS(=O)(=O)c1ccc(S(=O)(=O)Nc2cccc3c(Cl)c[nH]c23)cc1` [Indisulam] showed a cell viability of 91.3%. `Cc1nnc(-c2ccc(N3CCC(Oc4ccccc4C(F)(F)F)CC3)nn2)s1` [MF-438] was tested, and the cell viability was 99.7%. `CCCCCCCCCCCCC/C=C/[C@@H](O)[C@H](CO)N(C)C` [N,N-Dimethylsphingosine] gave a cell viability of 86.3%. `Nc1nc(O)c2c(CCc3ccc(C(=O)N[C@@H](CCC(=O)O)C(=O)O)cc3)c[nH]c2n1` [Pemetrexed] was tested, and the cell viability was 84.5%. With `C=C1NC(=O)c2cc(CN(C)c3ccc(C(=O)N[C@@H](CCC(=O)O)C(=O)O)s3)ccc2N1` [Raltitrexed] the cell viability was 97.1%.

Same assay, conditions: 1000 nM; 72 h
For `NS(=O)(=O)c1ccc(S(=O)(=O)Nc2cccc3c(Cl)c[nH]c23)cc1` [Indisulam], the cell viability was 43.1%. `Cc1nnc(-c2ccc(N3CCC(Oc4ccccc4C(F)(F)F)CC3)nn2)s1` [MF-438] gave a cell viability of 74.4%. Compound `CCCCCCCCCCCCC/C=C/[C@@H](O)[C@H](CO)N(C)C` [N,N-Dimethylsphingosine] has a cell viability of 11.6%. In the case of `Nc1nc(O)c2c(CCc3ccc(C(=O)N[C@@H](CCC(=O)O)C(=O)O)cc3)c[nH]c2n1` [Pemetrexed], the cell viability is reported as 74.1%. `C=C1NC(=O)c2cc(CN(C)c3ccc(C(=O)N[C@@H](CCC(=O)O)C(=O)O)s3)ccc2N1` [Raltitrexed] was tested, and the cell viability was 85.1%.

Same assay, conditions: 10000 nM; 72 h
With `NS(=O)(=O)c1ccc(S(=O)(=O)Nc2cccc3c(Cl)c[nH]c23)cc1` [Indisulam] the cell viability was 21.2%. `Cc1nnc(-c2ccc(N3CCC(Oc4ccccc4C(F)(F)F)CC3)nn2)s1` [MF-438] showed a cell viability of 41.2%. Work on `CCCCCCCCCCCCC/C=C/[C@@H](O)[C@H](CO)N(C)C` [N,N-Dimethylsphingosine] yielded a cell viability of less than 0%. With `Nc1nc(O)c2c(CCc3ccc(C(=O)N[C@@H](CCC(=O)O)C(=O)O)cc3)c[nH]c2n1` [Pemetrexed] the cell viability was 66.3%. In the case of `C=C1NC(=O)c2cc(CN(C)c3ccc(C(=O)N[C@@H](CCC(=O)O)C(=O)O)s3)ccc2N1` [Raltitrexed], the cell viability is reported as greater than 100%.

Each compound was assayed on myeloid leukemia patient primary cells Pat.5 in the same assay as above. Settings: 1 nM; 72 h.
Outline: as §1
For `NS(=O)(=O)c1ccc(S(=O)(=O)Nc2cccc3c(Cl)c[nH]c23)cc1` [Indisulam], the cell viability was 47.7%. `Cc1nnc(-c2ccc(N3CCC(Oc4ccccc4C(F)(F)F)CC3)nn2)s1` [MF-438] was tested, and the cell viability was 32.8%.
